Assays:
[1] = Methylphenidate antagonism (mice biting corrugated paper); type: in vivo; conditions: Mus musculus, ip
Experimental: Methylphenidate antagonism (ED50 mg/kg i.p.)
Perspex observation cages without bottom and lid, consisting of 5 sections each measuring 12×25×30 cm. White corrugated paper. Mice, male, 18-25 g.
The test substance is given i.p. in the doses 0, 1/8, 1/32 and 1/128 of the determined "i.p. LD50". 3×2 mice are used for each dose level. Two or 24 hours after injection of test substance, methylphenidate, 60 mg/kg, is injected s.c. After administration of methylphenidate the mice are placed in the observation cages, 2 in each cage, where they remain for exactly 1 hour. The cages are placed on corrugated paper, the corrugations facing upwards. It is examined whether the mice have been biting the corrugated paper or not. […] If one or more of the control pairs have not been biting, the test has to be repeated on a new set of mice.
The result is stated in fractions: 0/3, 1/3, 2/3 and 3/3 where 0, 1, 2 and 3 are the number of pairs which have not been biting on receipt of the dose in question.
The results are calculated as the dose (ED50), which causes antagonism in 50% of the test animals.

[2] = Amphetamine antagonism (stereotypy in rats); type: in vivo; conditions: Rattus norvegicus, ip, 24 h, read-out: Amphetamine antagonism ED50
[3] = Catalepsy wire mesh, rat, max.; type: in vivo, rats; conditions: Rattus norvegicus, sc; rats, s.c., strongest effect within first 6 hours; read-out: Catalepsy wire mesh, rat, max. ED50
Experimental: Catalepsy wire mesh, rat, max. (ED50 mg/kg s.c.)
A vertical wire netting (50 cm×49 cm). The meshes (openings) of the netting are square (1 cm×1 cm). The wire diameter is 2 mm. Stop watch. Rats, male, 180-200 g.
The animals are labeled and used in groups of five. The test substance is injected subcutaneously (s.c.) (5 ml/kg) at 4 dose levels selected from the fixed dose scale.
The animals are placed in the middle of the vertical wire netting 60, 120, 180, 240, 300 and 360 minutes after injection of the test compound. The animals are considered cataleptic when they remain immobile during a period of 15 seconds. This cataleptic reaction is designated +. If the rats are "atonic" and passively slide down the wire mesh they are considered not cataleptic. If the animals climb up and down the wire mesh they are nor cataleptic. In both situations the designation - is used.

[4] = Neuroleptic effect: duration and strength (remarks of Table 2); type: in vivo; conditions: in words; for Duration (remarks, words): duration of neuroleptic effect; for Strength of effect (remarks, words): strength of neuroleptic effect
Source text: The pharmacological testing of the novel xanthones and thioxanthenes of Formula I consisted of standard and reliable tests. […]

[5] = 2 h, read-out: Methylphenidate antagonism ED50, 2 h
[6] = 24 h, read-out: Methylphenidate antagonism ED50, 24 h
[7] = mice, i.p., methylphenidate 60 mg/kg s.c. 2 h after test substance, read-out: Methylphenidate antagonism ED50, 2 h
[8] = mice, i.p., methylphenidate 60 mg/kg s.c. 24 h after test substance, read-out: Methylphenidate antagonism ED50, 24 h

SMILES	ED50 [1, 5] [mg/kg]	ED50 [1, 6] [mg/kg]	ED50 [2] [mg/kg]	ED50 [3] [mg/kg]	Duration (remarks, words) [4]	Strength of effect (remarks, words) [4]	ED50 [1, 7] [mg/kg]	ED50 [1, 8] [mg/kg]
OCCN1CCN(CCCN2c3ccccc3Sc3ccc(C(F)(F)F)cc32)CC1 [fluphenazine, reference compound]	0.04	3.6	0.08	0.099	short acting	very strong	–	–
Fc1ccc2c(c1)Sc1ccc(C(F)(F)F)cc1C2=C1CCN(CC2CCOCC2)CC1 [Lu 15-031, 1-(4-tetrahydropyranylmethyl)-4-(2-trifluoromethyl-6-fluoro-9-thioxanthenylidene)piperidine]	–	–	1.3	–	long acting	moderately strong	0.52	0.55
OCCN1CCN(CCC=C2c3ccccc3Sc3ccc(Cl)cc32)CC1 [clopenthixol, reference compound]	–	–	0.77	0.95	short acting	moderately strong	1.2	–
O[C@H]1CC[C@H](CN2CCC(=C3c4ccc(F)cc4Sc4ccc(Cl)cc43)CC2)CC1 [Lu 14-114, 1-(trans-4-hydroxycyclohexylmethyl)-4-(2-chloro-6-fluoro-9-thioxanthenylidene)-piperidine]	–	–	0.35	–	short acting	strong	0.1	6.6
CS(=O)(=O)c1ccc2c(c1)C(=C1CCN(C[C@H]3CC[C@H](O)CC3)CC1)c1ccccc1S2 [Lu 16-066, 1-(Trans-4-hydroxycyclohexylmethyl)-4-(2-methylsulfonyl-9-thioxanthenylidene)piperidine]	–	–	–	0.25	short acting	moderately strong	0.73	> 10
CN(C)CCCN1c2ccccc2Sc2ccc(Cl)cc21 [chlorpromazine, reference compound]	4	20	7.1	5.6	short acting	moderatley strong	–	–
O=C1NCCN1CCN1CCC(=C2c3ccccc3Sc3ccc(Cl)cc32)CC1 [Lu 16-105]	–	–	1.2	0.38	short acting	strong	0.16	28
CC(=O)N[C@H]1CC[C@H](CN2CCC(=C3c4ccc(F)cc4Sc4ccc(C(F)(F)F)cc43)CC2)CC1 [Lu 16-043]	–	–	–	> 20	long acting	relatively strong	> 10	0.42
Cc1ccc2c(c1)C(=C1CCN(CCN3CCOC3=O)CC1)c1ccc(F)cc1S2 [Lu 14-070, 1-(2-(2-Oxazolidinon-3-yl)ethyl)-4-(2-methyl-6-fluoro-9-thioxanthenylidene)-piperidine]	–	–	1.3	1.8	short acting	moderately strong	0.32	> 40
O[C@H]1CC[C@@H](CN2CCC(=C3c4ccccc4Sc4ccc(Cl)cc43)CC2)CC1 [Lu 15-014, 1-(Cis-4-hydroxycyclohexylmethyl)-4-(2-chloro-9-thioxanthenylidene)-piperidine]	–	–	–	2.5	short acting	strong	0.2	> 10
Cc1ccc2c(c1)Sc1ccc(F)cc1C2=C1CCN(C[C@H]2CC[C@H](O)CC2)CC1 [Lu 14-090, 1-(trans-4-hydroxycyclohexylmethyl)-4-(2-fluoro-6-methyl-9-thioxanthenylidene)-piperidine]	–	–	–	–	short acting	moderately strong	1.25	32
